From ChEMBL document CHEMBL3044665, “Adzuki bean (Vigna angularis) responses to post-emergence herbicides” (Crop Prot, 2006)

How the values were obtained:
Format in all cases: organism-based
[1] = system: Vigna angularis; experiment: Phytotoxicity in Vigna angularis (adzuki bean) assessed as seed moisture content at 144 g ai/ha after 42 days applied as spray (reference value: 13.9%); conditions: in vivo, other, 1008 h, at 144 g/ha
[2] = system: Vigna angularis; experiment: Phytotoxicity in Vigna angularis (adzuki bean) assessed as visual injury at 72 g ai/ha after 14 days applied as spray relative to untreated control; conditions: in vivo, other, 336 h
[3] = system: Vigna angularis; experiment: Phytotoxicity in Vigna angularis (adzuki bean) assessed as visual injury at 72 g ai/ha after 7 days applied as spray relative to untreated control; conditions: in vivo, other, 168 h
[4] = system: Vigna angularis; experiment: Phytotoxicity in Vigna angularis (adzuki bean) assessed as visual injury at 144 g ai/ha after 7 days applied as spray relative to untreated control; conditions: in vivo, other, 168 h
[5] = system: Vigna angularis; experiment: Phytotoxicity in Vigna angularis (adzuki bean) assessed as shoot dry weight at 72 g ai/ha measured per 1 m row after 42 days applied as spray (reference value: 153 g); conditions: in vivo, other, 1008 h
[6] = system: Vigna angularis; experiment: Phytotoxicity in Vigna angularis (adzuki bean) assessed as plant height at 144 g ai/ha after 28 days applied as spray (RVB = 34 cm); conditions: in vivo, other, 672 h
[7] = system: Vigna angularis; experiment: Phytotoxicity in Vigna angularis (adzuki bean) assessed as plant height at 72 g ai/ha after 28 days applied as spray (RVB = 34 cm); conditions: in vivo, other, 672 h
[8] = system: Vigna angularis; experiment: Phytotoxicity in Vigna angularis (adzuki bean) assessed as visual injury at 144 g ai/ha after 28 days applied as spray relative to untreated control; conditions: in vivo, other, 672 h
[9] = system: Vigna angularis; experiment: Phytotoxicity in Vigna angularis (adzuki bean) assessed as crop yield at 72 g ai/ha measured during post emergence applied as spray (reference value: 2.05 t/ha); conditions: in vivo, other
[10] = system: Vigna angularis; experiment: Phytotoxicity in Vigna angularis (adzuki bean) assessed as crop yield at 144 g ai/ha measured during post emergence applied as spray (reference value: 2.05 t/ha); conditions: in vivo, other
[11] = system: Vigna angularis; experiment: Phytotoxicity in Vigna angularis (adzuki bean) assessed as seed moisture content at 72 g ai/ha after 42 days applied as spray (reference value: 13.9%); conditions: in vivo, other, 1008 h, at 72 g/ha
[12] = system: Vigna angularis; experiment: Phytotoxicity in Vigna angularis (adzuki bean) assessed as visual injury at 144 g ai/ha after 14 days applied as spray relative to untreated control; conditions: in vivo, other, 336 h
[13] = system: Vigna angularis; experiment: Phytotoxicity in Vigna angularis (adzuki bean) assessed as visual injury at 72 g ai/ha after 28 days applied as spray relative to untreated control; conditions: in vivo, other, 672 h
[14] = system: Vigna angularis; experiment: Phytotoxicity in Vigna angularis (adzuki bean) assessed as shoot dry weight at 144 g ai/ha measured per 1 m row after 42 days applied as spray (reference value: 153 g); conditions: in vivo, other, 1008 h
[15] = system: Vigna angularis; experiment: Phytotoxicity in Vigna angularis (adzuki bean) assessed as visual injury at 500 g ai/ha after 28 days applied as spray relative to untreated control; conditions: in vivo, other, 672 h
[16] = system: Vigna angularis; experiment: Phytotoxicity in Vigna angularis (adzuki bean) assessed as visual injury at 1000 g ai/ha after 28 days applied as spray relative to untreated control; conditions: in vivo, other, 672 h
[17] = system: Vigna angularis; experiment: Phytotoxicity in Vigna angularis (adzuki bean) assessed as visual injury at 1000 g ai/ha after 7 days applied as spray relative to untreated control; conditions: in vivo, other, 168 h
[18] = system: Vigna angularis; experiment: Phytotoxicity in Vigna angularis (adzuki bean) assessed as plant height at 1000 g ai/ha after 28 days applied as spray (RVB = 34 cm); conditions: in vivo, other, 672 h
[19] = system: Vigna angularis; experiment: Phytotoxicity in Vigna angularis (adzuki bean) assessed as shoot dry weight at 500 g ai/ha measured per 1 m row after 42 days applied as spray (reference value: 153 g); conditions: in vivo, other, 1008 h
[20] = system: Vigna angularis; experiment: Phytotoxicity in Vigna angularis (adzuki bean) assessed as plant height at 500 g ai/ha after 28 days applied as spray (RVB = 34 cm); conditions: in vivo, other, 672 h
[21] = system: Vigna angularis; experiment: Phytotoxicity in Vigna angularis (adzuki bean) assessed as seed moisture content at 1000 g ai/ha after 42 days applied as spray (reference value: 13.9%); conditions: in vivo, other, 1008 h, at 1000 g/ha
[22] = system: Vigna angularis; experiment: Phytotoxicity in Vigna angularis (adzuki bean) assessed as crop yield at 500 g ai/ha measured during post emergence applied as spray (reference value: 2.05 t/ha); conditions: in vivo, other
[23] = system: Vigna angularis; experiment: Phytotoxicity in Vigna angularis (adzuki bean) assessed as visual injury at 500 g ai/ha after 7 days applied as spray relative to untreated control; conditions: in vivo, other, 168 h
[24] = system: Vigna angularis; experiment: Phytotoxicity in Vigna angularis (adzuki bean) assessed as visual injury at 500 g ai/ha after 14 days applied as spray relative to untreated control; conditions: in vivo, other, 336 h
[25] = system: Vigna angularis; experiment: Phytotoxicity in Vigna angularis (adzuki bean) assessed as visual injury at 1000 g ai/ha after 14 days applied as spray relative to untreated control; conditions: in vivo, other, 336 h
[26] = system: Vigna angularis; experiment: Phytotoxicity in Vigna angularis (adzuki bean) assessed as seed moisture content at 500 g ai/ha after 42 days applied as spray (reference value: 13.9%); conditions: in vivo, other, 1008 h, at 500 g/ha
[27] = system: Vigna angularis; experiment: Phytotoxicity in Vigna angularis (adzuki bean) assessed as crop yield at 1000 g ai/ha measured during post emergence applied as spray (reference value: 2.05 t/ha); conditions: in vivo, other
[28] = system: Vigna angularis; experiment: Phytotoxicity in Vigna angularis (adzuki bean) assessed as shoot dry weight at 1000 g ai/ha measured per 1 m row after 42 days applied as spray (reference value: 153 g); conditions: in vivo, other, 1008 h

## CCOC(=O)[C@@H](C)Oc1ccc(Oc2cnc3cc(Cl)ccc3n2)cc1 [QUIZALOFOP-P-ETHYL]
[1]
  Activity: 14.1%
[2]
  Activity: 1.2%
[3]
  Activity: 1.4%
[4]
  Activity: 2.4%
[5]
  Activity: 140 g
[6]
  Activity: 33.2 cm
[7]
  Activity: 35.2 cm
[8]
  Activity: 0.8%
[9]
  Crop_yield: 2.22 tons/ha
[10]
  Crop_yield: 2.08 tons/ha
[11]
  Activity: 13.9%
[12]
  Activity: 1.8%
[13]
  Activity: 0.3%
[14]
  Activity: 135 g

## CCC/C(=N\OCC)C1=C(O)CC(CC(C)SCC)CC1=O (stereo not drawn) [SETHOXYDIM]
[15]
  Activity: 0.4%
[16]
  Activity: 1.1%
[17]
  Activity: 4.9%
[18]
  Activity: 32.8 cm
[19]
  Activity: 134 g
[20]
  Activity: 33.1 cm
[21]
  Activity: 14.3%
[22]
  Crop_yield: 2.04 tons/ha
[23]
  Activity: 3.7%
[24]
  Activity: 1.6%
[25]
  Activity: 3.6%
[26]
  Activity: 14.1%
[27]
  Crop_yield: 1.95 tons/ha
[28]
  Activity: 142 g
